Results published in patent US7429605B2, “Phenylpyridine derivatives” (Hoffmann-La Roche Inc., priority 2005, dated 2008).

Tested on: HEK293 cells
Experiment: Viability assay in HEK293 cells (CellTiter-Glo Luminescent Cell Viability Assay)
Assay type: cell-based
Settings: Homo sapiens, 7 days (168 h) incubation, compound 3 μM to 0.00015 μM, ATP luminescence
Protocol: Viability Assay in HEK293 Cells
A viability assay was performed using the CellTiter-Glo® Luminescent Cell Viability Assay (see Promega Corporation's Technical Bulletin No. 288, pp. 1-11 [revised 2/04] which is hereby incorporated by reference in its entirety). This assay is a homogeneous method of determining the number of viable cells in culture based on quantitation of the ATP present, an indicator of metabolically active cells. The assay is designed for use with multiwell formats, making it ideal for automated high-throughput screening (HTS), cell proliferation and cytotoxicity assays. The homogeneous assay procedure involves adding a single reagent (containing luciferase, luciferan substrate, and buffer) directly to cells cultured in serum-supplemented medium. Cell washing, removal of medium and multiple pipetting steps are not required. The system detects as few as 15 cells/well in a 384-well format in 10 minutes after adding reagent and mixing.
The homogeneous “add-mix-measure” format results in cell lysis and generation of a luminescent signal proportional to the amount of ATP present. The amount of ATP is directly proportional to the number of cells present in culture. The above-referenced assay generates a “glow-type” luminescent signal, produced by the luciferase reaction, which has a half-life generally greater than five hours, depending on cell type and medium used. The extended half-life eliminates the need to use reagent injectors and provides flexibility for continuous or batch mode processing of multiple plates. The unique homogeneous format avoids errors that may be introduced by other ATP measurement methods that require multiple steps.
HEK293 cells (human embryonic kidney cell line transformed by Adenovirus 5 fragments, ATCC-No. CRL 1573) were cultivated in Dulbecco's Modified Eagle Medium (DMEM) with Glutamax™ (cell culture media that contains L-Alanyl-L-Glutamine [a stabilized form/source of L-Glutamine] from Invitrogen, Cat-No. 31966-021), 5% Fetal Calf Serum (FCS, Sigma Cat-No. F4135 (FBS)), 100 Units/ml penicillin/100 μg/ml streptomycin (=Pen/Strep from Invitrogen Cat. No. 15140). For the assay the cells were seeded in 384 well plates, 5000 cells per well, in the same medium. The next day the test compounds were added in various concentrations ranging from 3 μM to 0.00015 μM (10 concentrations, 1:3 diluted). After 7 days the viability assay was done according to the instructions of the manufacturer. In brief: the cell-plate was equilibrated to room temperature for approximately 30 minutes and than the reagent (containing luciferase, luciferan substrate, and buffer) was added. The contents were carefully mixed for 15 minutes to induce cell lysis. After 45 minutes the luminescent signal was measured in Victor 2, (scanning multiwell spectrophotometer, Wallac).
Medium: Dulbecco's Modified Eagle Medium (DMEM) with Glutamax™ (Invitrogen, 31966-021), 5% Fetal Calf Serum (FCS, Sigma Cat-No. F4135 (FBS)), Pen/Strep (Invitrogen Cat. No. 15140).
Incubate 24 h at 37° C., 5% CO2
2. day Induction (Substance testing):
In general the dilution steeps are 1:3 a) Add 8 μl of 10 mM stock solution of compound to 72 μl DMSO b) dilute 9×1:3 (always 30 μl to 60 μl DMSO) in this DMSO dilution row (results in 10 wells with concentrations from 1000 μM to 0.06 μM) c) dilute each concentration 1:4.8 (10 μl compound dilution to 38 μd medium) d) dilute each concentration 1:10 (10 μl compound dilution to 90 μl medium) e) add 10 μl of every concentration to 60 μl medium in the cell plate resulting in final concentration of DMSO: 0.3% in every well and resulting in final concentration of compounds from 3 μM to 0.00015 μM Incubate 168 h (7 days) at 37° C., 5% CO2
Add 30 μl CellTiter-Glo™ Reagent (containing luciferase, luciferan substrate, and buffer)/well, shake 15 minutes at room temperature incubate further 45 minutes at room temperature without shaking.
Victor 2 scanning multiwell spectrophotometer (Wallac), Luminescence mode […]

Clc1ccc(-c2cccc(COc3ccc(CCCCn4ccnn4)cc3)n2)cc1 [Example 35, 2-(4-Chloro-phenyl)-6-[4-(4-[1,2,3]triazol-1-yl-butyl)-phenoxymethyl]-pyridine] and FC(F)(F)c1ccc(-c2cccc(COc3ccc(CCCCn4ccnn4)cc3)n2)cc1 [Example 18, 2-[4-(4-[1,2,3]triazol-1-yl-butyl)-phenoxymethyl]-6-(4-trifluoromethyl-phenyl)-pyridine] fall in the same range of IC50: 1000 to 5000 nM for the first, 1000 to 5000 nM for the second.

Compared with Cc1cc(OCc2ccc(-c3ccc(OC(F)(F)F)cc3)nc2)ccc1CCCCn1ccnn1 [Example 4, 5-[3-Methyl-4-(4-[1,2,3]triazol-1-yl-butyl)-phenoxymethyl]-[2-(4-trifluoromethoxy-phenyl)]-pyridine], Cc1cc(OCc2ccc(-c3ccc(C(F)(F)F)cc3)nc2)ccc1CCCCn1ccnn1 [Example 5, 5-[3-Methyl-4-(4-[1,2,3]triazol-1-yl-butyl)-phenoxymethyl]-2-(4-trifluoromethyl-phenyl)-pyridine] is 4.1-fold lower in IC50: 365 nM for the first, 89 nM for the second.

First: FC(F)(F)c1ccc(-c2cncc(COc3ccc(CCCCn4ccnn4)cc3)c2)cc1 [Example 33, 3-[4-(4-[1,2,3]Triazol-1-yl-butyl)-phenoxymethyl]-5-(4-trifluoromethyl-phenyl)-pyridine]
Second: FC(F)(F)c1ccc(-c2ccc(COc3ccc(CCCCn4ccnn4)cc3)cn2)cc1 [Example 3, 5-[4-(4-[1,2,3]triazol-1-yl-butyl)-phenoxymethyl]-[2-(4-trifluoromethyl-phenyl)]-pyridine]
The IC50 of the first is higher: 1000 to 5000 nM for the first, 5 to 1000 nM for the second.

First: Cc1nc(-c2ccc(C(F)(F)F)cc2F)ccc1COc1ccc(CCCCn2ccnn2)cc1 [Example 43, 6-(2-Fluoro-4-trifluoromethyl-phenyl)-2-methyl-3-[4-(4-[1,2,3]triazol-1-yl-butyl)-phenoxymethyl]-pyridine]
Second: Cc1cc(OCc2ccc(-c3ccc(C(F)(F)F)cc3F)nc2C)ccc1CCCCn1ccnn1 [Example 42, 6-(2-Fluoro-4-trifluoromethyl-phenyl)-2-methyl-3-[3-methyl-4-(4-[1,2,3]triazol-1-yl-butyl)-phenoxymethyl]-pyridine]
The IC50 of the first is higher: 1000 to 5000 nM for the first, 5 to 1000 nM for the second.

First: Cc1nc(-c2ccc(C(F)(F)F)cc2)ccc1COc1ccc(C[S+]([O-])CCn2ccnn2)cc1 (stereo not drawn) [Example 9, 2-Methyl-3-[4-(2-[1,2,3]triazol-1-yl-ethanesulfinylmethyl)-phenoxymethyl]-6-(4-trifluoromethyl-phenyl)-pyridine]
Second: Cc1nc(-c2ccc(C(F)(F)F)cc2)ccc1COc1ccc(CSCCn2ccnn2)cc1 [Example 22, 2-Methyl-3-[4-(2-[1,2,3]triazol-1-yl-ethylsulfanylmethyl)-phenoxymethyl]-6-(4-trifluoromethyl-phenyl)-pyridine]
The IC50 of the first is higher: 1000 to 5000 nM for the first, 5 to 1000 nM for the second.

Cc1nc(-c2ccc(Cl)cc2)ccc1COc1ccc(CCCCn2ccnn2)cc1 [Example 20, 6-(4-Chloro-phenyl)-2-methyl-3-[4-(4-[1,2,3]triazol-1-yl-butyl)-phenoxymethyl]-pyridine] and Cc1nc(-c2ccc(F)cc2)ccc1COc1ccc(CCCCn2ccnn2)cc1 [Example 16, 6-(4-Fluoro-phenyl)-2-methyl-3-[4-(4-[1,2,3]triazol-1-yl-butyl)-phenoxymethyl]-pyridine] fall in the same range of IC50: 5 to 1000 nM for the first, 5 to 1000 nM for the second.

First: Cc1cc(OCc2cccc(-c3ccc(OC(F)(F)F)cc3)n2)ccc1CCCCn1ccnn1 [Example 30, 2-[3-Methyl-4-(4-[1,2,3]triazol-1-yl-butyl)-phenoxymethyl]-6-(4-trifluoromethoxy-phenyl)-pyridine]
Second: Cc1cc(OCc2cccc(-c3ccc(C(F)(F)F)cc3)n2)ccc1CCCCn1ccnn1 [Example 19, 2-[3-Methyl-4-(4-[1,2,3]triazol-1-yl-butyl)-phenoxymethyl]-6-(4-trifluoromethyl-phenyl)-pyridine]
The IC50 of the first is higher: 1000 to 5000 nM for the first, 5 to 1000 nM for the second. The second is the more potent here.

Cc1nc(-c2ccc(C(F)(F)F)cc2)ccc1COc1ccc(COCCn2ccnn2)cc1 [Example 8, 2-Methyl-3-[4-(2-[1,2,3]triazol-1-yl-ethoxymethyl)-phenoxymethyl]-6-(4-trifluoromethyl-phenyl)-pyridine] and Cc1nc(-c2ccc(C(F)(F)F)cc2)ccc1COc1ccc(CCCCn2ccnn2)cc1 [Example 7, 2-Methyl-3-[4-(4-[1,2,3]triazol-1-yl-butyl)-phenoxymethyl]-6-(4-trifluoromethyl-phenyl)-pyridine] fall in the same range of IC50: 5 to 1000 nM for the first, 5 to 1000 nM for the second.

Cc1cc(OCc2ccc(-c3ccc(C(F)(F)F)cc3)nc2C)ccc1CCCCn1ccnn1 [Example 6, 2-Methyl-3-[3-Methyl-4-(4-[1,2,3]triazol-1-yl-butyl)-phenoxymethyl]-6-(4-trifluoromethyl-phenyl)-pyridine] and Cc1cc(OCc2ccc(-c3ccc(OC(F)(F)F)cc3)nc2C)ccc1CCCCn1ccnn1 [Example 11, 2-Methyl-3-[3-Methyl-4-(4-[1,2,3]triazol-1-yl-butyl)-phenoxymethyl]-6-(4-trifluoromethoxy-phenyl)-pyridine] fall in the same range of IC50: 5 to 1000 nM for the first, 5 to 1000 nM for the second.

First: Cc1nc(-c2ccc(F)cc2)ccc1COc1ccc(CSCCn2ccnn2)cc1 [Example 23, 6-(4-Fluoro-phenyl)-2-methyl-3-[4-(2-[1,2,3]triazol-1-yl-ethylsulfanylmethyl)-phenoxymethyl]-pyridine]
Second: Cc1cc(OCc2ccc(-c3ccc(F)cc3)nc2C)ccc1CCCCn1ccnn1 [Example 17, 6-(4-Fluoro-phenyl)-2-methyl-3-[3-Methyl-4-(4-[1,2,3]triazol-1-yl-butyl)-phenoxymethyl]-pyridine]
The IC50 of the first is higher: 1000 to 5000 nM for the first, 5 to 1000 nM for the second.

Cc1cc(OCc2cncc(-c3ccc(Cl)cc3)c2)ccc1CCCCn1ccnn1 [Example 38, 3-(4-Chloro-phenyl)-5-[3-methyl-4-(4-[1,2,3]triazol-1-yl-butyl)-phenoxymethyl]-pyridine] and Cc1cc(OCc2ccc(-c3ccc(Cl)cc3)nc2)ccc1CCCCn1ccnn1 [Example 28, 2-(4-Chloro-phenyl)-5-[3-methyl-4-(4-[1,2,3]triazol-1-yl-butyl)-phenoxymethyl]-pyridine] fall in the same range of IC50: 1000 to 5000 nM for the first, 1000 to 5000 nM for the second.

Cc1cc(OCc2ccc(-c3cccc(C(F)(F)F)c3)nc2)ccc1CCCCn1ccnn1 [Example 26, 5-[3-Methyl-4-(4-[1,2,3]triazol-1-yl-butyl)-phenoxymethyl]-2-(3-trifluoromethyl-phenyl)-pyridine] and Cc1cc(OCc2ccc(-c3cccc(C(F)(F)F)c3)nc2C)ccc1CCCCn1ccnn1 [Example 13, 2-Methyl-3-[3-Methyl-4-(4-[1,2,3]triazol-1-yl-butyl)-phenoxymethyl]-6-(3-trifluoromethyl-phenyl)-pyridine] fall in the same range of IC50: 1000 to 5000 nM for the first, 1000 to 5000 nM for the second.

First: Cc1cc(OCc2ccc(-c3ccc(Cl)cc3)nc2C)ccc1CCCCn1ccnn1 [Example 21, 6-(4-Chloro-phenyl)-2-methyl-3-[3-Methyl-4-(4-[1,2,3]triazol-1-yl-butyl)-phenoxymethyl]-pyridine]
Second: Cc1cc(OCc2ccc(-c3cccc(OC(F)(F)F)c3)nc2C)ccc1CCCCn1ccnn1 [Example 15, 2-Methyl-3-[3-Methyl-4-(4-[1,2,3]triazol-1-yl-butyl)-phenoxymethyl]-6-(3-trifluoromethoxy-phenyl)-pyridine]
The IC50 of the first is lower: 5 to 1000 nM for the first, 1000 to 5000 nM for the second. The first is the more potent here.

In the case of Clc1ccc(-c2ccc(COc3ccc(CCCCn4ccnn4)cc3)cn2)cc1 [Example 27, 2-(4-Chloro-phenyl)-5-[4-(4-[1,2,3]triazol-1-yl-butyl)-phenoxymethyl]-pyridine], the IC50 is reported as 5 to 1000 nM.
